Read-outs that look alike come from different tables or passages of the source.
What was measured:
Cass2 = Cass2 (Vibrio cholerae, UniProt D0VX23); conditions: tryptophan fluorescence quenching, 24°C, pH 7.5; read-out: Ligand binding affinity KD, Cass2 wt
Experimental: Fluorescence assays were used to detect binding of compounds to Cass2 and related mutants. Concentrated ligand solutions in Buffer B were titrated into a 400 µl sample of protein (180 nM in Buffer B) and Trp fluorescence monitored.
Fluorescence intensities were recorded at 22°C with a PerkinElmer LS55 fluorescence spectrophotometer using a 1 cm×0.2 cm quartz cell. […] Thus, fluorescence quenching was monitored by recording emission at 350 nm for all samples following excitation at 295 nm (slit widths 10 and 5 nm, respectively) with an integration time of 5 s. All readings were corrected for buffer background emission and sample dilution. Inner-filter effects were measured by titrating each compound into a 1.3 µM sample of tryptophan in Buffer B and the relative fluorescence quenching (ΔF) corrected as follows [64]:
ΔF = (F 0−F C (F W0/F WC))/F 0 where F 0 = fluorescence intensity of protein sample, F C = fluorescence intensity of protein with added compound, F W0 = fluorescence intensity of free tryptophan solution, F WC = fluorescence of tryptophan solution with added compound.
Standard deviation was calculated for the individual ΔF values from three independent experiments. […]

(E134Q)Cass2 = (E134Q)Cass2 (Vibrio cholerae, UniProt D0VX23, E134Q); conditions: pH 7.5; read-out: Ligand binding affinity KD, Cass2 E134Q
BmrR [1] = conditions: isothermal titration calorimetry binding assays; read-out: Ligand binding affinity KD, BmrR wt; cited from earlier work
BmrR [2] = conditions: equilibrium dialysis methods; read-out: Ligand binding affinity KD, BmrR wt; cited from earlier work

Compound | Kd (Cass2) [µM] | Kd ((E134Q)Cass2) [µM] | Kd (BmrR [1]) [µM] | Kd (BmrR [2]) [µM]
c1ccc([P+](c2ccccc2)(c2ccccc2)c2ccccc2)cc1 [tetraphenylphosphonium (TPP), tetraphenylphosphonium chloride] | 0.2 ± 0.08 | 0.2 ± 0.13 | 74 ± 20.5 | 100
benzalkonium chloride | 0.1 | 0.3 ± 0.06 | – | –

Reference: article PMC3048380, “Crystal Structure of an Integron Gene Cassette-Associated Protein from Vibrio cholerae Identifies a Cationic Drug-Binding Module” (PLoS ONE, 2011)
